# Test results from US20060264419A1 (priority 2003, published 2006).
# Target: 5-HT2A receptors (Rattus norvegicus, UniProt P14842)
# Test: in-vitro affinity to 5-HT2A receptors, displacement of [3H]ketanserine (Example A1)
# Type: binding
# Conditions: read-out: HT2A IC50
# Text: The 5-HT2A receptors are exposed both to [^3H]ketanserine (a substance which is known for its affinity to the receptor) and also to the test compound. The decrease in the affinity of [^3H]ketanserine to the receptor is an indication of the affinity of the test substance to the 5-HT2A receptor.
# 5-HT2A receptors, sequence (P14842 whole entry): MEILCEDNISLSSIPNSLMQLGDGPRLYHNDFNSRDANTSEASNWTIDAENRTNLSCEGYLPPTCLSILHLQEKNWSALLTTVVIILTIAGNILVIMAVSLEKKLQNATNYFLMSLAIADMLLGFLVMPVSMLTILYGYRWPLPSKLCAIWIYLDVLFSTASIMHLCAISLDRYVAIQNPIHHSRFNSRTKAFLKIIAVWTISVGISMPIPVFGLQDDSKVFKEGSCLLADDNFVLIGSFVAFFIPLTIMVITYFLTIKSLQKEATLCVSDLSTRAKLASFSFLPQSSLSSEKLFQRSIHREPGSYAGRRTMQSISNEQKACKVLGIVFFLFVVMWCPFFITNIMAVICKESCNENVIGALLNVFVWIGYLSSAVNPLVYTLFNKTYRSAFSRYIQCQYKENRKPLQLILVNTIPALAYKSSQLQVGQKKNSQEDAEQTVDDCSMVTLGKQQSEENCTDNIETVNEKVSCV
row,IC50,Compound
1,470 nM,"Fc1ccccc1-c1c(CNC2CCNCC2)cnn1-c1ccc(-c2ccccc2)cc1 [Example 1058, [1-Biphenyl-4-yl-5-(2-fluorophenyl)-1H-pyrazol-4-ylmethyl]piperidin-4-ylamine]"
2,220 nM,"Cc1cccc(-c2ccc(-n3ncc(CN4CCN(C)CC4)c3-c3ccccc3F)cc2)c1 [Example 1017, 1-[5-(2-Fluorophenyl)-1-(3′-methylbiphenyl-4-yl)-1H-pyrazol-4-ylmethyl]-4-methylpiperazine]"
3,360 nM,"NC(=O)CN1CCN(Cc2cnn(-c3ccc(-c4ccccc4)cc3)c2-c2ccccc2F)CC1 [Example 1042, 2-{4-[1-Biphenyl-4-yl-5-(2-fluoro-phenyl)-1H-pyrazol-4-ylmethyl]piperazin-1-yl}acetamide]"
4,140 nM,"Cc1ccc(-c2c(CN3CCN(C)CC3)cnn2-c2ccc(-c3ccc(F)cc3)cc2)cc1 [Example 994, 1-[1-(4′-Fluorobiphenyl-4-yl)-5-p-tolyl-1H-pyrazol-4-ylmethyl]-4-methylpiperazine]"
5,180 nM,"Nc1ccncc1NCc1cnn(-c2ccc(-c3ccccc3)cc2)c1-c1ccccc1F [Example 1006, N3-[1-Biphenyl-4-yl-5-(2-fluoro-phenyl)-1H-pyrazol-4-ylmethyl]pyridine-3,4-diamine]"

row,Compound,IC50
1,1-(Biphenyl-4-yltrifluoromethyl-1H-pyrazol-4-ylmethyl)-4-methylpiperazine [Example 1026],260 nM

# Same assay, conditions: target not given; description names affinity to 5-HT2A receptors; read-out: IC50
row,IC50,Compound
1,75 nM,"Fc1ccccc1-c1c(CN2CCN(Cc3ccncc3)CC2)cnn1-c1ccc(-c2ccccc2)cc1 [(184), 1-[1-Biphenyl-4-yl-5-(2-fluorophenyl)-1H-pyrazol-4-ylmethyl]-4-pyridin-4-ylmethylpiperazine]"
2,830 nM,"CS(=O)(=O)N1CCN(Cc2cnn(-c3ccc(-c4ccccc4)cc3)c2-c2ccccc2F)CC1 [(123), 1-[1-Biphenyl-4-yl-5-(2-fluorophenyl)-1H-pyrazol-4-ylmethyl]-4-methanesulfonylpiperazine]"
3,280 nM,"CCC1(O)CCN(Cc2cnn(-c3ccc(-c4ccccc4)cc3)c2-c2ccccc2F)CC1 [(80), 1-[1-Biphenyl-4-yl-5-(2-fluorophenyl)-1H-pyrazol-4-ylmethyl]-4-ethylpiperidin-4-ol]"
4,200 nM,"CN(C)C1CCN(Cc2cnn(-c3ccc(-c4ccccc4)cc3)c2-c2ccccc2F)CC1 [(37), {1-[1-Biphenyl-4-yl-5-(2-fluorophenyl)-1H-pyrazol-4-ylmethyl]-piperidin-4-yl}dimethylamine]"
5,790 nM,"O=C(Nc1ccccc1)N1CCN(Cc2cnn(-c3ccc(-c4ccccc4)cc3)c2-c2ccccc2F)CC1 [(126), N-Phenyl-4-[1-biphenyl-4-yl-5-(2-fluorophenyl)-1H-pyrazol-4-ylmethyl]piperazine-1-carboxamide]"
6,1400 nM,"NCCc1cnn(-c2ccc(-c3ccccc3)cc2)c1-c1ccccc1F [(188), 2-[1-Biphenyl-4-yl-5-(2-fluorophenyl)-1H-pyrazol-4-yl]-ethylamine]"
7,250 nM,"CN1CCC(N(C)Cc2cnn(-c3ccc(-c4ccc(F)cc4)nc3)c2-c2ccccc2F)CC1 [(143), {5-(2-Fluorophenyl)-1-[6-(4-fluorophenyl)pyridin-3-yl]-1H-pyrazol-4-ylmethyl}methyl-(1-methylpiperidin-4-yl)amine]"
8,170 nM,"Fc1ccccc1-c1c(CNCCc2c[nH]cn2)cnn1-c1ccc(-c2ccccc2)cc1 [(154), [1-Biphenyl-4-yl-5-(2-fluorophenyl)-1H-pyrazol-4-ylmethyl]-[2-(1H-imidazol-4-yl)ethyl]amine]"

row,Compound,IC50
1,"OC1CC2CCC(C1)N2Cc1cnn(-c2ccc(-c3ccccc3)cc2)c1-c1ccccc1F (stereo not shown) [(83), 8-[1-Biphenyl-4-yl-5-(2-fluorophenyl)-1H-pyrazol-4-ylmethyl]-8-azabicyclo[3.2.1]octan-3-ol]",1100 nM
2,"O=C1CCCN1CCCNCc1cnn(-c2ccc(-c3ccccc3)cc2)c1-c1ccccc1F [(151), 1-(3-{[1-Biphenyl-4-yl-5-(2-fluorophenyl)-1H-pyrazol-4-ylmethyl]amino}propyl)pyrrolidin-2-one]",64 nM
